{"source": "patent US20060235063A1", "about": "“Method of protecting a soybean plant with flutriafol” (priority 2005, published 2006)", "key": {"[1]": {"test_system": "Asian Rust (Phakopsora pachyrhizi) in Soy Beans", "test": "Example 1: climate chamber test, flutriafol seed or soil dressing, plants inoculated with rust spores at third trifoliate", "assay_type": "in vivo", "description": "(§1) Soy bean seed was treated with a range of flutriafol rates, as presented in Table 1 below (right-hand side). Additionally, flutriafol was applied directly to the soil, at the rates described below (left-hand side). Three replicates were done per treatment. At the third trifoliate stage, seedlings where inoculated with rust spores on the ad- and ab-axial surfaces of the third trifoliate.\nFollowing treatments and inoculations, the inoculated plants were transferred to a climate chamber, watered as necessary and evaluated for the incidence of Asian Rust. The average of the recorded incidence of disease (%) on the third trifoliate is presented below. An untreated control is also provided as comparative data."}, "[2]": {"test_system": "Asian Rust in Soy Beans", "test": "Example 3: greenhouse experiment, flutriafol seed or soil dressing, plants inoculated with rust spores at third trifoliate", "assay_type": "in vivo, Phakopsora pachyrhizi", "design": "average recorded incidence of disease on the third trifoliate: unit not given here", "description": "as §1, with “Soya” for “Soy bean”, “3” for “1”, “where made” for “were done”\nFollowing treatments and inoculations, the inoculated plants where transferred to a climate chamber, watered as necessary and evaluated for the incidence of Asian Rust. The average of the recorded incidence of disease on the third trifoliate is presented below."}, "[3]": {"test_system": "soybean rust", "test": "Example 2: field trial at Formoso do Araguaia, Brazil, percentage rust coverage on leaves", "assay_type": "in vivo", "from_the_text": "A trial in Brazil at Formoso do Araguaia examined the rust control from nine rates of flutriafol applied as a 1.5% granule in a rate range of 4 to 40 kg formulated product per hectare (60 to 600 g flutriafol active ingredient per hectare), three rates of Vincit 2.5% powder seed dressing at […] formulated product per 100 kg seed (2.25 to 3.75 g flutriafol active ingredient per 100 kg seed) and four rates of Vincit 5% SC suspension concentrate seed dressing at 50 to 150 g formulation per 100 kg seed (1.5 to 4.5 g flutriafol active ingredient per 100 kg seed).\nThese treatments were compared with an untreated and a commercial standard treatment of Derosal Plus, which is a mixture of carbendazim plus thiram in a suspension concentrate formulation applied to seed at a rate of 200 ml formulation per 100 kg seed (30 g thiram plus 70 g carbendazim) per 100 kg seed. Both the untreated sample and the Derosal Plus treatment are provided below as comparative data.\n(§2) Seed was drilled at 60 kg per hectare in four replicates per treatment. Each replicate consisted of a 6 m row of 100 seeds. With the seed treatments, fertilizer was first applied up to 2 cm below seed depth and then the rows opened to a depth of 3 cm, the seeds sown and the rows closed with soil. In each treatment there were five rows of 6 m length with 45 cm between rows. With the in-furrow treatments, the row was opened using a hoe, and then the appropriate weight amount of Impact 1.5 GR was applied in the row followed directly afterwards with seed placed over the granules. Soil was then placed over the seed to close the row.\n(§3) Twenty two days after planting, the number of plants emerged was evaluated by counting the emerged seedlings in each of the central three rows of each plot. Disease assessment was done 61 days after emergence by selecting 20 leaves per plot from the whole plant at random, and estimating the percentage rust coverage (% disease severity)."}, "[4]": {"test_system": "soybean", "test": "Example 2: field trial, count of emerged seedlings (crop safety)", "details": "in vivo", "from_the_text": "as §2, §3"}}, "data": [{"compound": "OC(Cn1cncn1)(c1ccc(F)cc1)c1ccccc1F", "note": "(racemic) [flutriafol, (RS)-2,4′-difluoro-α-(1H-1,2,4-triazol-1-ylmethyl)benzhydryl alcohol]", "values": [{"measurement": "disease control (in words)", "setting": "[1]; in-furrow treatments using 30 grams or more flutriafol per hectare", "result": "Significant improvements"}, {"measurement": "average recorded incidence of disease (%) on the third trifoliate", "setting": "[1]; seed treatment 3 ppm", "result": 47, "unit": "%"}, {"measurement": "average recorded incidence of disease (%) on the third trifoliate", "setting": "[1]; seed treatment 10 ppm", "result": 28, "unit": "%"}, {"measurement": "average recorded incidence of disease (%) on the third trifoliate", "setting": "[1]; seed treatment 30 ppm", "result": 8, "unit": "%"}, {"measurement": "average recorded incidence of disease (%) on the third trifoliate", "setting": "[1]; seed treatment 100 ppm", "result": 1, "unit": "%"}, {"measurement": "average recorded incidence of disease (%) on the third trifoliate", "setting": "[1]; seed treatment 300 ppm", "result": 0, "unit": "%"}, {"measurement": "average recorded incidence of disease (%) on the third trifoliate", "setting": "[1]; seed treatment 1000 ppm", "result": 0, "unit": "%"}, {"measurement": "disease control (in words)", "setting": "[1]; seed treatments using 10 ppm flutriafol or more", "result": "Significant improvements"}, {"measurement": "average recorded incidence of disease (%) on the third trifoliate", "setting": "[1]; soil application 3 g ai/Ha", "result": 73, "unit": "%"}, {"measurement": "average recorded incidence of disease (%) on the third trifoliate", "setting": "[1]; soil application 10 g ai/Ha", "result": 63, "unit": "%"}, {"measurement": "average recorded incidence of disease (%) on the third trifoliate", "setting": "[1]; soil application 30 g ai/Ha", "result": 53, "unit": "%"}, {"measurement": "average recorded incidence of disease (%) on the third trifoliate", "setting": "[1]; soil application 100 g ai/Ha", "result": 12, "unit": "%"}, {"measurement": "average recorded incidence of disease (%) on the third trifoliate", "setting": "[1]; soil application 300 g ai/Ha", "result": 2, "unit": "%"}, {"measurement": "average recorded incidence of disease (%) on the third trifoliate", "setting": "[1]; soil application 1000 g ai/Ha", "result": 1, "unit": "%"}, {"measurement": "disease control (in words)", "setting": "[2]; in-furrow treatments using 30 grams flutriafol per hectare or more", "result": "Complete disease control"}, {"measurement": "disease control (in words)", "setting": "[2]; in-furrow treatments using just 3 grams flutriafol per hectare", "result": "Significant improvements in disease control"}, {"measurement": "average recorded incidence of disease on the third trifoliate", "setting": "[2]; seed treatment 3 ppm, 21DPI", "result": 31}, {"measurement": "average recorded incidence of disease on the third trifoliate", "setting": "[2]; seed treatment 10 ppm, 21DPI", "result": 35}, {"measurement": "average recorded incidence of disease on the third trifoliate", "setting": "[2]; seed treatment 30 ppm, 21DPI", "result": 40}, {"measurement": "average recorded incidence of disease on the third trifoliate", "setting": "[2]; seed treatment 100 ppm, 21DPI", "result": 0}, {"measurement": "average recorded incidence of disease on the third trifoliate", "setting": "[2]; seed treatment 300 ppm, 21DPI", "result": 0}, {"measurement": "average recorded incidence of disease on the third trifoliate", "setting": "[2]; seed treatment 1000 ppm, 21DPI", "result": 0}, {"measurement": "disease control (in words)", "setting": "[2]; seed treatments using 100 ppm flutriafol or more", "result": "Complete disease control"}, {"measurement": "average recorded incidence of disease on the third trifoliate", "setting": "[2]; soil treatment 3 g ai/Ha, 28DPI", "result": 18}, {"measurement": "average recorded incidence of disease on the third trifoliate", "setting": "[2]; soil treatment 10 g ai/Ha, 28DPI", "result": 16}, {"measurement": "average recorded incidence of disease on the third trifoliate", "setting": "[2]; soil treatment 30 g ai/Ha, 28DPI", "result": 0}, {"measurement": "average recorded incidence of disease on the third trifoliate", "setting": "[2]; soil treatment 100 g ai/Ha, 28DPI", "result": 0}, {"measurement": "average recorded incidence of disease on the third trifoliate", "setting": "[2]; soil treatment 300 g ai/Ha, 28DPI", "result": 0}, {"measurement": "average recorded incidence of disease on the third trifoliate", "setting": "[2]; soil treatment 1000 g ai/Ha, 28DPI", "result": 0}, {"measurement": "rust control (in words)", "setting": "[3]; all flutriafol seed treatment rates", "result": "reduction in rust"}, {"measurement": "rust control (in words)", "setting": "[3]; in-furrow, lowest rate of 60 g flutriafol/hectare, 61 days after plant emergence", "result": "controlled the rust"}, {"measurement": "rust control (in words)", "setting": "[3]; in-furrow, rates above 150 g flutriafol/hectare, 61 days after emergence", "result": "complete control"}, {"measurement": "effect on plant numbers (in words)", "setting": "[4]", "result": "unaffected"}, {"measurement": "phytotoxicity (in words)", "setting": "[4]", "result": "phytotoxic"}]}]}
